Values of other authors as cited in patent US20250339399A1, “SUPRAMOLECULAR SELF-ASSEMBLY SYSTEM” (Beijing Creatron Institute of Pharmaceutical Research Co., …, priority 2022, published 2025).

Settings: Cannabidiol derivatives, Table 30 (chemical structures); cited from earlier work

Row | Molecule | Log P
1 | C=C(C)[C@@H]1CCC(C)=C[C@H]1c1c(O)cc(CCC)c(C(=O)O)c1O [compound 6, ((1′R,2′R)-2,6-dihydroxy-5′-methyl-2′-(prop-1-en-2-yl)-4-propyl-1′,2′,3′,4′-tetrahydro-[1,1′-biphenyl]-3-carboxylic acid)] | 5.74
2 | C=C(C)[C@@H]1CCC(C(=O)O)=C[C@H]1c1c(O)cc(C(C)(C)CCCCCC)cc1O [compound 25, ((1R,6R)-2′,6′-dihydroxy-4′-(2-methyloctan-2-yl)-6-(prop-1-en-2-yl)-1,4,5,6-tetrahydro-[1,1′-biphenyl]-3-carboxylic acid)] | Log P = 6.99 H-D:3,H-R = 4
3 | (2-[(1R,2R)-2-[2,6- di(acetoxy)-4- pentenyl]-4- methylcyclohex-3- en-1-yl]prop-2-en- 1-yl acetate) [compound 58] | Log P = 5.31 H-D:0,H-R = 3
4 | C=C(C)[C@@H]1CCC(C)=C[C@H]1c1c(O)cc(CCCC)cc1O [compound 4, ((1′R,2′R)-4-butyl-5′-methyl-2′-(prop-1-en-2-yl)-1′,2′,3′,4′-tetrahydro-[1,1′-biphenyl]-2,6-diol)] | Log P = 5.88 H-D:2,H-R = 2
5 | C=C(C)[C@@H]1CCC(C)=C[C@H]1c1c(O)cc(CCCC(=O)O)cc1O [compound 36, (4-((1′R,2′R)-2,6-dihydroxy-5′-methyl-2′-(prop-1-en-2-yl)-1′,2′,3′,4′-tetrahydro-[1,1′-biphenyl]-4-yl)butyric acid)] | Log P = 4.59 H-D:3,H-R = 4
6 | C=C(C)[C@@H]1CCC(C)=C[C@H]1C1=C(O)C(=O)C(CCCCC)=C(NCc2ccccc2)C1=O [compound 61, (2,5-cyclohexadiene-1,4-dione, 2-hydroxy-3-((1R,6R)-3-methyl-6-(1-methylvinyl)-2-cyclohexen-1-yl)-6-pentyl-5-((benzyl)amino))] | Log P = 6.23 H-D:2,H-R = 4
7 | C=C(C)c1ccc(C)cc1-c1c(O)cc(CCCCC)cc1O [compound 8, (5′-methyl-4-pentyl-2′-(prop-1-en-2-yl)-[1,1′-biphenyl]-2,6-diol)] | Log P = 6.85 H-D:2,H-R = 2
8 | C=C(C)[C@H]1CCC(C)=C[C@@H]1c1c(O)cc(O)c(C(=O)CCc2ccccc2)c1O [compound 18, (3-phenyl-1-((1′S,2′S)-2,4,6-trihydroxy-5′-methyl-2′-(prop-1-en-2-yl)-1′,2′,3′,4′-tetrahydro-[1,1′-biphenyl]-3-yl)prop-1-one)] | Log P = 6.87 H-D:3,H-R = 4
9 | C=C(C)[C@@H]1CCC(C)=C[C@H]1c1c(O)cc(CCC)cc1O [compound 3, ((1′R,2′R)-5′-methyl-2′-(prop-1-en-2-yl)-4-propyl-1′,2′,3′,4′-tetrahydro-[1,1′-biphenyl]-2,6-diol)] | Log P = 5.44 H-D:2,H-R = 2
10 | CCCCCc1cc(O)c([C@@H]2CC(C)CC[C@H]2C(C)C)c(O)c1 (stereo partly drawn) [compound 21, (2-((1R,2S)-2-isopropyl-5-methylcyclohexyl)-5-pentylbenzene-1,3-diol)] | Log P = 7.08 H-D:2,H-R = 2
11 | C=C(C)[C@@H]1CCC(C)=C[C@H]1c1c(O)cc(C(C)(C)CCCCCC)cc1O [compound 24, ((1′R,2′R)-5′-methyl-4-(2-methyloctan-2-yl)-2′-(prop-1-en-2-yl)-1′,2′,3′,4′-tetrahydro-[1,1′-biphenyl]-2,6-diol)] | Log P = 7.38 H-D:2,H-R = 2
12 | CCCCCc1cc(O)c([C@H]2C=C(CO)CC[C@H]2C(C)C)c(O)c1 [compound 23, ((1′R,2′S)-5′-(hydroxymethyl)-2′-isopropyl-4-pentyl-1′,2′,3′,4′-tetrahydro-[1,1′-biphenyl]-2,6-diol)] | Log P = 5.39 H-D:3,H-R = 3
13 | C=C(C)[C@H]1CCC(C)=C[C@@H]1c1c(O)cc(CCCCC)cc1O [compound 19, ((1′S,2′S)-5′-methyl-4-pentyl-2′-(propanediol-1-en-2-yl)-1′,2′,3′,4′-tetrahydro-[1,1′-biphenyl]-2,6-diol)] | Log P = 6.33 H-D:2,H-R = 2
14 | CCCCCc1cc(O)c([C@@H]2C=C(CO)CC[C@H]2C(C)C)c(O)c1 [compound 22, ((1′S,2′S)-5′-(hydroxymethyl)-2′-isopropyl-4-pentyl-1′,2′,3′,4′-tetrahydro-[1,1′-biphenyl]-2,6-diol)] | Log P = 5.39 H-D:3,H-R = 3
15 | C=C(C)[C@@H]1CCC(CO)=C[C@H]1c1c(O)cc(C(C)(C)CCCCCC)cc1O [compound 26, ((1′R,2′R)-5′-(hydroxymethyl)-4-(2-methyloctan-2-yl)-2′-(prop-1-en-2-yl)-1′,2′,3′,4′-tetrahydro-[1,1′-biphenyl]-2,6-diol)] | Log P = 6.52 H-D:3,H-R = 3
16 | C=C(C)[C@@H]1CCC(C)=C[C@H]1c1c(O)cc(CCCCC)cc1OCCCN [compound 51, ((1′R,2′R)-6-(3-aminopropoxy)-5′-methyl-4-pentyl-2′-(prop-1-en-2-yl)-1′,2′,3′,4′-tetrahydro-[1,1′-biphenyl]-2-ol)] | Log P = 5.73 H-D:2,H-R = 3
17 | C=C(C)[C@H]1CC[C@H](C)C[C@@H]1c1c(O)cc(-c2cc3ccccc3o2)cc1O [compound 16] | Log P = 6.17 H-D:2,H-R = 2
18 | C=C(C)[C@H]1CC[C@H](C)C[C@@H]1c1c(O)cc(/C=C/c2ccccc2O)cc1O [compound 15, (5-((E)-2-hydroxystyryl-2-(1S,2S,5S)-5-methyl-2-(prop-1-en-2-yl)cyclohexyl)phenyl-1,3-diol)] | Log P = 6.48 H-D:3,H-R = 3
19 | C=C(C)[C@@H]1CCC(C)=C[C@H]1c1c(O)cc(CCCCC)cc1O [compound 1, ((1′R,2′R)-5′-methyl-4-pentyl-2′-(prop-1-en-2-yl)-1′,2′,3′,4′-tetrahydro-[1,1′-biphenyl]-2,6-diol)] | Log P = 6.32, H-D:2,H-R = 2
20 | C=C(C)[C@@H]1CCC(CO)=C[C@H]1c1c(O)cc(CCCCC)cc1O [compound 11, ((1′R,2′R)-5′-(hydroxymethyl)-4-pentyl-2′-(prop-1-en-2-yl)-1′,2′,3′,4′-tetrahydro-[1,1′-biphenyl]-2,6-diol)] | Log P = 5.04 H-D:3,H-R = 3
21 | C=C(C)[C@@H]1CCC(C)=C[C@H]1c1c(O)cc(C)cc1O [compound 2, ((1′R,2′R)-4,5′-dimethyl-2′-(prop-1-en-2-yl)-1′,2′,3′,4′-tetrahydro-[1,1′-biphenyl]-2,6-diol)] | Log P = 4.55, H-D:2,H-R = 2
22 | C=C(C)[C@@H]1CCC(C)=C[C@H]1c1c(O)cc(O)cc1CCCCC [compound 63, (4-[(1R,6R)-3-methyl-6-prop-1-en-2-ylcyclohex-2-en-1-yl]-5-pentylbenzene-1,3-diol)] | Log P = 6.33 H-D:2,H-R = 2
23 | CCCCCc1cc(O)c([C@@H]2C=C(C)CC[C@H]2C(C)C)c(O)c1 [compound 20, ((1′S,2′S)-2′-isopropyl-5′-methyl-4-pentyl-1′,2′,3′,4′-tetrahydro-[1,1′-biphenyl]-2,6-diol)] | Log P = 6.67 H-D:2,H-R = 2
24 | C=C(C)[C@H]1CC[C@H](C)C[C@@H]1c1c(O)cc(/C=C/c2ccccc2)cc1O [compound 14, (2-((1S,2S,5S)-5-methyl-2-(prop-1-en-2-yl)cyclohexyl)-5-((E)-styryl)phenyl-1,3-diol)] | Log P = 6.78 H-D:2,H-R = 2
25 | C=C(C)[C@@H]1CCC(C)=C[C@H]1C1=C(O)C(=O)C(CCCCC)=CC1=O [compound 59, (3-hydroxy-2-[(1R,6R)-3-methyl-6-prop-1-en-2-ylcyclohex-2-en-1-yl]-5-pentylcyclohex-2,5-diene-1,4-dione)] | Log P = 5.23 H-D:1,H-R = 3
26 | C=C(C)[C@@H]1CCC(C(=O)O)=C[C@H]1c1c(O)cc(CCCCC)cc1O [compound 10, ((1R,6R)-2′,6′-dihydroxy-4′-pentyl-6-(prop-1-en-2-yl)-1,4,5,6-tetrahydro-[1,1′-biphenyl]-3-carboxylic acid)] | 5.52
27 | C=C(C)[C@@H]1CCC(C)=C[C@H]1c1c(O)cc(CCCCC)cc1OC [compound 7, ((1′R,2′R)-6-methoxy-5′-methyl-4-pentyl-2′-(prop-1-en-2-yl)-1′,2′,3′,4′-tetrahydro-[1,1′-biphenyl]-2-ol)] | Log P = 6.47 H-D:1,H-R = 2
28 | CCCCCCC(C)(C)c1cc(O)c([C@@H]2CC(C)CC[C@H]2C(C)C)c(O)c1 (stereo partly drawn) [compound 29, (2-((1R,2S)-2-isopropyl-5-methylcyclohexyl)-5-(2-methyloctan-2-yl)benzene-1,3-diol)] | Log P = 8.55 H-D:2,H-R = 2
29 | C=C(C)[C@@H]1CC(OC(C)=O)C(C)=C[C@H]1c1c(OC(C)=O)cc(CCCCC)cc1OC(C)=O (stereo partly drawn) [compound 57, (3-(acetyloxy)-2-[(1R,6R)-4-(acetyloxy)-3-methyl-6-(prop-1-en-2-yl)cyclohex-2-en-1-yl]-5-pentylphenyl acetate)] | Log P = 5.36 H-D:0,H-R = 3

Same assay, conditions: Cannabidiol derivatives; pH 7.4; cited from earlier work

Row | Molecule | Log D7.4
30 | C=C(C)[C@@H]1CCC(C)=C[C@H]1c1c(O)cc(CCC)c(C(=O)O)c1O [compound 6, ((1′R,2′R)-2,6-dihydroxy-5′-methyl-2′-(prop-1-en-2-yl)-4-propyl-1′,2′,3′,4′-tetrahydro-[1,1′-biphenyl]-3-carboxylic acid)] | 2.26
31 | C=C(C)[C@@H]1CCC(C)=C[C@H]1c1c(O)cc(CCCCC)c(C(=O)O)c1O [compound 5, ((1′R,2′R)-2,6-dihydroxy-5′-methyl-4-pentyl-2′-(prop-1-en-2-yl)-1′,2′,3′,4′-tetrahydro-[1,1′-biphenyl]-3-carboxylic acid)] | 3.15
32 | C=C(C)[C@@H]1CCC(C(=O)O)=C[C@H]1c1c(O)cc(CCCCC)cc1O [compound 10, ((1R,6R)-2′,6′-dihydroxy-4′-pentyl-6-(prop-1-en-2-yl)-1,4,5,6-tetrahydro-[1,1′-biphenyl]-3-carboxylic acid)] | 2.40

Same assay, conditions: prost derivatives, Table 31 (relevant information); cited from earlier work

Row | Molecule | Log P
33 | CCCCC(C)(O)C/C=C/[C@H]1[C@H](O)CC(=O)[C@@H]1CCCCCCC(=O)OC (mixture of isomers) [Misoprostol, misoprostol] | Log P:3.86 D-H: 2 R-H:4
34 | CCCCC[C@H](O)/C=C/[C@H]1[C@H](O)CC(=O)[C@@H]1CCCCCCC(=O)O [Alprostadil, alprostadil] | Log P 3.58 H,3 R-H 5
35 | O=C(O)CCC/C=C\C[C@@H]1[C@@H](/C=C/[C@@H](O)COc2cccc(C(F)(F)F)c2)[C@H](O)C[C@@H]1O [Travoprost acid, travoprost acid] | Log P:2.92 D-H: 4 R-H: 6
36 | CCCCC[C@](C)(O)/C=C/[C@@H]1[C@@H](C/C=C\CCCC(=O)O)[C@@H](O)C[C@H]1O [Carboprost, carboprost] | Log P:2.89 D-H: 4 R-H: 5
37 | CCCCC(C)(C)[C@H](O)/C=C/[C@H]1[C@H](O)CC(=O)[C@@H]1CCCC/C=C/C(=O)OC [Gemeprost, gemeprost] | Log P:4.71 D-H: 2 R-H:4
38 | CC(C)OC(=O)CCC/C=C\C[C@@H]1[C@@H](/C=C/[C@@H](O)COc2cccc(C(F)(F)F)c2)[C@H](O)C[C@@H]1O [Travoprost, travoprost] | Log P:3.84 D-H: 3 R-H: 5
